The source of these data is patent US11091460B2, “Syk inhibitor and use method therefor” (CHIA TAI TIANQING PHARMACEUTICAL GROUP CO., LTD., priority 2017, dated 2021).

One experiment has as its target T1, SYK kinase (Homo sapiens, UniProt P43405).
T1 construct: purchased Invitrogen PV3857
As to the kind of experiment: In vitro test of the inhibition effect on SYK kinase (HTRF). The experiment is classed as biochemical. Conditions: tyrosine kinase 0.0156 ng/μL, substrate 0.2 uM, ATP 2 uM, 23° C. 1 hour, read-out: Inhibit SYK kinase IC50. The procedure:
Experimental Example 1: In Vitro Test of the Inhibition Effect of the Example Compounds on SYK Kinase
Adenosine triphosphate concentration was controlled at 2 uM. • 4) Loaded with a Multidrop automatic dispenser, and a mixture of tyrosinase solution and tyrosine kinase-substrate-biotin/adenosine triphosphate was added in an amount of 5 ul per well, and incubated at 23° C. for 1 hour. • c) Detection phase: • 1) Added 13.33 mL of ethylenediaminetetraacetic acid solution to the Detection Buffer in the kit, added the specified amount of […] (Eu)-labeled antibody and streptavidin XL-665, and prepared the detection solution. • 2) Loaded with a Multidrop automatic dispenser, and 10 uL of the detection solution per well, incubated at 23° C. for 1 hour. It terminated the reaction of the enzyme and substrate mixture. • 3) Reading after centrifugation on a multi-function microplate reader, • d) Data Analysis: Analyzed the data with XL-Fit, and calculated the IC50 value of the compound.

The test system of another experiment is AKT phosphorylation. As to the kind of experiment: In vitro test of the inhibition effect on AKT phosphorylation (ELISA, Ramos cells). The experiment is classed as cell-based. The following applies: for pIC50: Ramos cell line, compound 1 hour, goat anti-human IgM 10 ug/ml for 10 minutes, Phospho-AKT 1/2/3 (ser473) ELISA, read-out: Inhibit AKT phosphorylation IC50. The procedure:
Experimental Example 2: In Vitro Test of the Inhibition Effect of the Example Compounds on AKT Phosphorylation
• 2.1 Experimental Purpose: Intracellular protein kinase AKT phosphorylation detected by experiment was measured by enzyme-linked immunosorbent assay (ELISA), and the inhibition of the compound on protein kinase AKT phosphorylation was evaluated by an index of the half-cell inhibition concentration (IC50) value of the compound. • 2.2 Experimental Materials: • Cell line: Ramos cell line • Cell culture medium (RPMI1640, Invitrogen #22400-105; 10% serum Gibco #10099-141; L-glutamine 1×, Gibco #25030-081) • Experimental medium (without serum, RPM11640, Invitrogen #22400-105; L-glutamine 1×, Gibco #25030) • Lysis buffer (trishydroxymethylaminomethane hydrochloride, Invitrogen15567-1000 ml; sodium chloride, domestic; sodium deoxycholate, Sigma30970-25 G; polyethylene glycol octylphenyl ether, SigmaT9284-100 ml; dodecane sodium sulfonate, SigmaL3771; ethylenediaminetetraacetic acid, Invitrogen15575-038-100 ml; ultrapure water, MilliQ) • Protease inhibitor (Roche, 4693159001-30/BOX) • Phosphatase inhibitor mixture 2 (Sigma, P5726-5 ML) • Phosphatase inhibitor mixture 3 (Sigma, P0044-5 ML) • Goat Anti-Human immunoglobulin M (F(ab′)2 Goat Anti-Human IgM) (Jackson Immuno Research-109-006-129) • Phosphorylated AKT assay kit (Phospho-AKT 1/2/3 (ser473)) (TGR Bioscience, EKT002) • 10× Hank's balanced salt solution (Gibco #14065-056) • 96-well cell plate (Greiner #655090) • Compound V-well dilution plate (Axygen #WITP02280) • CO2 incubator (Thermo #371) • Centrifuge (Eppendorf #581 OR) • Vi-cell cell counter (Beckman Coulter) • Pipette (Eppendorf) • Pipette (Greiner) • Pipetting gun (Eppendorf) • Multi-purpose microplate reader (Envision Reader) • 2.3 Experimental procedures and methods: • a) Cell Seeding (Ramos Cells) • 1) The medium was preheated in a 37° C. water bath. Suspended cells and their culture solution were aspirated, centrifuged at 1000 rpm for 5 minutes. • 2) Aspirated the cell culture medium, added 10 mL of pre-warmed medium to the centrifuge tube, blew off the resuspended cells, pipette 1 mL of the cell suspension, and counted with Vi-cell; • 3) The Ramos cells were diluted with a medium to a density of 5×10^6/mL, and the diluted cells were added to a 96-well cell culture plate (100 μL/well) using a lance. Placed the cell plates in a 37° C., 5% CO2 incubator for overnight. • b) Cell starvation: • 1) After cultured the inoculation cells for overnight, centrifuged at 1000 rpm for 5 minutes on the next day, aspirated the original medium by a lance, added serum-free experimental medium, placed the cell plates in a 37° C., 5% CO2 incubator, and starved for overnight. • c) Compound preparation and dosing: • 1) The compound was diluted with dimethyl sulfoxide to give an initial concentration of 5 mM. A triple gradient dilution was done with compound V dilution plate to make 10 concentration points. • 2) Took another new compound V-well dilution plate, added 198 ul of serum-free experimental medium to each well, and then added 2 ul of the diluted compound above to each well, and mixed with a lance. […]

pIC50: −log10 of the molar value. Read-outs that look alike come from different tables or passages of the source.

By pIC50 is commonly meant the negative decadic logarithm of the IC50, by convention in mol/L. Take `Cn1c(=O)c(Nc2ccc(N3CCC[C@H](C(=O)O)C3)cn2)cc2c(F)c(-c3cc[nH]n3)ccc21` [Example 19, (3S)-1-[6-[[5-fluoro-1-methyl-2-oxa-6-(1H-pyrazol-3-yl)-1,2-dihydroquinolin-3-yl)amine]pyridin-3-yl]piperidine-3-carboxylic acid]: the pIC50 is 7.84 on SYK kinase and 6.41 in the experiment on AKT phosphorylation (Homo sapiens, Ramos).

As to `Cn1c(=O)c(Nc2ccc(N3CCN(C4COC4)CC3)cn2)cc2cc(-c3cc[nH]n3)ccc21` [Example 4, 1-Methyl-3-[[5-(4-(oxetan-3-yl)piperazin-1-yl]pyridin-2-yl]amino]-6-(1H-pyrazol-3-yl)quinoline-2(1H)-one], the pIC50 at SYK kinase is 7.46; in the experiment on AKT phosphorylation (Homo sapiens, Ramos), 6.23.

As for `Cn1c(=O)c(Nc2ccccn2)cc2c(F)c(-c3cc[nH]n3)ccc21` [Example 15, 5-Fluoro-1-methyl-6-(1H-pyrazol-3-yl)-3-(pyridin-2-amine)-quinoline-2(1H)-one], the pIC50 at SYK kinase is 7.00; with AKT phosphorylation (Homo sapiens, Ramos) it was 6.37.

In the case of `Cn1c(=O)c(Nc2ccc(N3CCOCC3)cc2)nc2c(Cl)cc(-c3cn[nH]c3)cc21` [Example 41, 5-Chloro-1-methyl-3-((4-morpholinephenyl)amino)-7-(1H-pyrazol-4-yl)quinoxaline-2(1H)-one], the pIC50 was 8.32 at SYK kinase and 7.01 in the experiment with AKT phosphorylation (Homo sapiens, Ramos).

`CN1CCCN(c2ccc(Nc3nc4ccc(-c5cn[nH]c5)cc4n(C)c3=O)cc2)CC1` [Example 37, 1-Methyl-3-((4-(4-methyl-1,4-diazepan-1-yl)phenyl)amino)-7-(1H-pyrazol-4-yl)quinoxaline-2(1H)-one]: the negative logarithm of the IC50 (pIC50) was 8.00 on SYK kinase and 6.58 in the experiment with AKT phosphorylation (Homo sapiens, Ramos).

In the case of `Cn1c(=O)c(Nc2ccc(N3CCNCC3)cc2)nc2ccc(-c3cn[nH]c3)cc21` [Example 39, 1-Methyl-3-((4-(piperazin-1-yl)phenyl)amino)-7-(1H-pyrazol-4-yl)quinoxaline-2(1H)-one], the pIC50 on SYK kinase was 8.44; in the experiment with AKT phosphorylation (Homo sapiens, Ramos), 7.22.

`Cn1c(=O)c(Nc2ccc(C3CCOCC3)cn2)cc2cc(-c3cc[nH]n3)ccc21` [Example 3]: the pIC50 at SYK kinase is 7.39; with AKT phosphorylation (Homo sapiens, Ramos), 6.49.

For `Cn1c(=O)c(Nc2ccc(N3CCOCC3)cc2)nc2ccc(-c3cn[nH]c3)cc21` [Example 26, 1-Methyl-3-((4-morpholinephenyl)amino)-7-(1H-pyrazol-4-yl)quinoxaline-2(1H)-one], the pIC50 at SYK kinase was 8.38; in the experiment on AKT phosphorylation (Homo sapiens, Ramos), 7.30.

As for `Cn1c(=O)c(Nc2ccc(N3CCOCC3)cc2)cc2cc(-c3cc[nH]n3)ccc21` [Example 1, 1-Methyl-3-((4-morpholinephenyl)amino)-6-(1H-pyrazol-3-yl) quinoline-2(1H)-one], the negative logarithm of the IC50 (pIC50) on SYK kinase was 7.47; with AKT phosphorylation, 6.61.

For the compound `Cn1c(=O)c(Nc2ccc(N3CCOCC3)cn2)cc2cc(-c3cc[nH]n3)ccc21` [Example 2, 1-Methyl-3-((5-morpholinepyridin-2-yl)amino)-6-(1H-pyrazol-3-yl)quinoline-2(1H)-one], the values for the negative logarithm of the IC50 (pIC50) on SYK kinase and in the experiment with AKT phosphorylation were 6.69 and 6.12, respectively.

For `Cn1c(=O)c(Nc2ccc(C3(F)COC3)cn2)cc2c(F)c(-c3cc[nH]n3)ccc21` [Example 23, 5-Fluoro-3-[[5-(3-fluorooxetan-3-yl)pyridin-2-yl]amino]-1-methyl-6-(1H-pyrazol-3-yl)quinoline-2(1H)-one], the pIC50 on SYK kinase was 7.57; in the experiment on AKT phosphorylation (Homo sapiens, Ramos), 6.77.

With `Cn1c(=O)c(Nc2ccc(N3CCOCC3)cn2)cc2c(F)c(-c3cc[nH]n3)c(F)cc21` [Example 8, 5,7-Difluoro-1-methyl-3-((5-morpholinopyridin-2-yl)amino)-6-(1H-pyrazol-3-yl)quinoline-2(1H)-one], the pIC50 was 7.26 on SYK kinase and 6.73 in the experiment on AKT phosphorylation (Homo sapiens, Ramos).

For `Cn1c(=O)c(Nc2ccc(C(C)(O)C(F)(F)F)cn2)cc2c(F)c(-c3cc[nH]n3)ccc21` (single isomer, unassigned) [Example 25, 5-Fluoro-1-methyl-6-(1H-pyrazol-3-yl)-3-((5-(1,1,1-trifluoro-2-hydroxypropan-2-yl)pyridine-2-yl)amino)quinoline-2(1H)-one], the negative logarithm of the IC50 (pIC50) at SYK kinase was 8.05; in the experiment on AKT phosphorylation it was 6.92.

Regarding `Cn1c(=O)c(Nc2ccc(N3CCOCC3)cc2)nc2c(F)cc(-c3cn[nH]c3)cc21` [Example 44], the negative logarithm of the IC50 (pIC50) is 8.36 at SYK kinase and 7.01 in the experiment with AKT phosphorylation (Homo sapiens, Ramos).

On to `Cn1c(=O)c(Nc2ccc(N3CCC[C@@H](C(=O)O)C3)cn2)cc2c(F)c(-c3cc[nH]n3)ccc21` [Example 18, (3R)-1-[6-[[5-fluoro-1-methyl-2-oxa-6-(1H-pyrazol-3-yl)-1,2-dihydroquinolin-3-yl)amino]pyridin-3-yl]piperidine-3-carboxylic acid], for which the negative-log IC50 (pIC50) on SYK kinase was 7.59; with AKT phosphorylation (Homo sapiens, Ramos), 6.07.

As a reminder, the IC50 is the concentration needed to halve the response being measured. Consider `Cn1c(=O)c(Nc2ccc(C3(O)CCC3)cn2)cc2c(F)c(-c3cc[nH]n3)ccc21` [Example 21], for which the pIC50 on SYK kinase is 7.66. Further, the half-maximal inhibitory concentration (IC50) with AKT phosphorylation (Homo sapiens, Ramos, read-out: Inhibit AKT phosphorylation IC50 (nM)) is 200 nM.

As for `Cn1c(=O)c(Nc2ccc(N3CCS(=O)(=O)CC3)cc2)nc2ccc(-c3cn[nH]c3)cc21` [Example 35, 3-((4-(1,1-Dioxothiomorpholine)phenyl)amino)-1-methyl-7-(1H-pyrazol-4-yl)quinoxaline-2(1H)-one], the pIC50 at SYK kinase is 8.29; in the experiment on AKT phosphorylation (Homo sapiens, Ramos), 7.28.

For `Cn1c(=O)c(Nc2ccc(N)cn2)cc2c(F)c(-c3cc[nH]n3)ccc21` [Example 16, 3-((5-Aminopyridin-2-yl)amino)-5-fluoro-1-methyl-6-(1H-pyrazol-3-yl)quinoline-2(1H)-one], the pIC50 at SYK kinase is 7.32; with AKT phosphorylation (Homo sapiens, Ramos), 6.71.

For `Cn1c(=O)c(Nc2ccc(N3CCC(O)(C(F)(F)F)CC3)cn2)cc2c(F)c(-c3cc[nH]n3)ccc21` [Example 10, 5-Fluoro-3-[[5-[4-hydroxy-4-(trifluoromethyl)piperidin-1-yl]pyridin-2-yl]amino]-1-methyl-6-(1H-pyrazol-3-yl)quinoline-2(1H)-one], the pIC50 was 7.52 at SYK kinase and 6.46 in the experiment on AKT phosphorylation (Homo sapiens, Ramos).

`Cn1c(=O)c(Nc2ccc(C(C)(O)C(F)(F)F)cn2)cc2c(F)c(-c3cc[nH]n3)ccc21` (single isomer, unassigned) [Example 24, 5-Fluoro-1-methyl-6-(1H-pyrazol-3-yl)-3-((5-(1,1,1-trifluoro-2-hydroxypropan-2-yl)pyridine-2-yl)amino)quinoline-2(1H)-one]: the pIC50 at SYK kinase was 7.91; in the experiment with AKT phosphorylation (Homo sapiens, Ramos), 6.76.

With `Cn1c(=O)c(Nc2ccc(N3CCCC(C)(C(=O)O)C3)cn2)cc2c(F)c(-c3cc[nH]n3)ccc21` (stereo not drawn) [Example 17, 1-(6-((5-Fluoro-1-methyl-2-oxo-6-(1H-pyrazol-3-yl)-1,2-dihydroquinolin-3-yl)amine)pyridine-3-yl)-3-pipecoline-3-carboxylic acid], the negative-log IC50 (pIC50) was 7.60 on SYK kinase and 6.59 in the experiment with AKT phosphorylation (Homo sapiens, Ramos).
